Reference: US20250296953A1, “3,4-THIAZOLO-STEROIDS AND METHODS OF MAKING AND USING THE SAME” (Arkansas State University - Jonesboro, priority 2018, published 2025)
Like-named read-outs stand apart in the source and are kept apart here.

Key:
[1] = system: SK-MEL-25; assay: Melanoma cytotoxicity assay (resazurin); format: cell-based; settings: for SK-MEL-25 (% inhibition): SK-MEL-25 melanoma cells, 24 hours with compound, resazurin, concentration not given
Method in brief: (§1)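 Cells are plated at roughly 4000 per well and allowed 24 h before compound addition in triplicate. After a further 24 h, resazurin is added for 6 h and fluorescence measured; percent viability is normalized to DMSO-treated wells.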

[2] = system: SK-MEL-28; assay: Melanoma cytotoxicity assay (resazurin); format: cell-based; settings: for SK-MEL-28 (% inhibition): SK-MEL-28 melanoma cells, 24 hours with compound, resazurin, concentration not given
Method in brief: as §1

[3] = system: NCI-H522 (NSCLC); assay: NCI 60 one dose screen; format: cell-based, human; settings: Non-small Cell Lung Cancer
[4] = system: SF-295; assay: NCI 60 one dose screen; format: cell-based, human; settings: one dose; CNS Cancer; SF-295
[5] = system: 60 different human tumor cell lines; settings: for TGI: five dose
[6] = system: glioblastoma (SF-295); assay: NCI 60 five dose screen; settings: for GI50 / CC50: Homo sapiens; for GI50: SF-295; for CC50: SF-295, read-out: LC50; for TGI: SF-295 (CNS Cancer), five dose
[7] = system: gliosarcoma (SF-539); assay: NCI 60 five dose screen; settings: for GI50 / CC50: Homo sapiens; for GI50: SF-539; for CC50: SF-539, read-out: LC50; for TGI: SF-539 (CNS Cancer), five dose
[8] = A549/ATCC (Non-small Cell Lung Cancer)
[9] = EKVX (Non-small Cell Lung Cancer)
[10] = HOP-62 (Non-small Cell Lung Cancer)
[11] = HOP-92 (Non-small Cell Lung Cancer)
[12] = MDA-MB-231/ATCC (Breast Cancer)
[13] = NCI-H23 (Non-small Cell Lung Cancer)
[14] = NCI-H226 (Non-small Cell Lung Cancer)
[15] = NCI-H322M (Non-small Cell Lung Cancer)
[16] = NCI-H460 (Non-small Cell Lung Cancer)
[17] = NCI-H522 (Non-small Cell Lung Cancer)

For C[C@]12CC[C@H]3[C@@H](CC=C4c5sc(Nc6ccccc6)nc5CC[C@@]43C)[C@@H]1CC[C@@H]2O [IIIa.10, (1S,2R,13R,14S,17S,18S)-7-anilino-2,18-dimethyl-8-thia-6-azapentacyclo[11.7.0.02,10.05,9.014,18]icosa-5(9),6,10-trien-17-ol], the IC50 ([1]; Homo sapiens, SK-MEL-25 melanoma cells (head prints SK-25), read-out: SK-25 IC50) was greater than 20 µM, the “SK-MEL-25 (% viability)” value ([1]; human, 24 h) was 13.15% and the “SK-MEL-28 (% viability)” value ([2]; human, 24 h) was 13.79%. The “Growth Percent” value [3] was 25.77%, the “Growth Percent” value [4] was 7.36% and the TGI ([5]; 786-0 (Renal Cancer)) was 3.30E−6. For the same compound, the TGI ([5]; A498 (Renal Cancer)) was 5.66E−6, the TGI [5, 8] was 6.02E−6 and the TGI ([5]; ACHN (Renal Cancer)) was 3.25E−6. The TGI ([5]; BT-549 (Breast Cancer)) was 4.31E−6, the TGI ([5]; CAKI-1 (Renal Cancer)) was 5.68E−6 and the TGI ([5]; CCRF-CEM (Leukemia)) was 2.71E−5. For the same compound, the TGI ([5]; COLO 205 (Colon Cancer)) was 5.61E−6, the TGI ([5]; DU-145 (Prostate Cancer)) was 3.62E−6 and the TGI [5, 9] was 9.26E−6. The TGI ([5]; HCC-2998 (Colon Cancer)) was 3.56E−6, the TGI ([5]; HCT-15 (Colon Cancer)) was 5.15E−6 and the TGI ([5]; HCT-116 (Colon Cancer)) was 3.01E−6. It also gave a TGI ([5]; HL-60(TB) (Leukemia)) of 6.87E−6, a TGI [5, 10] of 6.54E−6 and a TGI [5, 11] of 6.77E−6. It also gave a TGI ([5]; HS 578T (Breast Cancer)) of 1.72E−5, a TGI ([5]; HT29 (Colon Cancer)) of 4.45E−6 and a TGI ([5]; IGROV1 (Ovarian Cancer)) of 7.85E−6. The TGI ([5]; K-562 (Leukemia)) was 1.26E−5, the TGI ([5]; KM12 (Colon Cancer)) was 3.12E−6 and the TGI ([5]; LOX IMVI (Melanoma)) was 2.77E−6. For the same compound, the TGI ([5]; M14 (Melanoma)) was 4.27E−6, the TGI ([5]; MALME-3M (Melanoma)) was 5.89E−6 and the TGI ([5]; MCF7 (Breast Cancer)) was 4.73E−6. It also gave a TGI [5, 12] of 4.63E−6, a TGI ([5]; MDA-MB-435 (Melanoma)) of 7.03E−6 and a TGI ([5]; MDA-MB-468 (Breast Cancer)) of 3.38E−6. The TGI ([5]; MOLT-4 (Leukemia)) was 8.07E−6, the TGI [5, 13] was 5.04E−6 and the TGI [5, 14] was 5.57E−6. For the same compound, the TGI [5, 15] was 1.11E−5, the TGI [5, 16] was 4.04E−6 and the TGI [5, 17] was 4.50E−6. The TGI ([5]; NCI/ADR-RES (Ovarian Cancer)) was 9.17E−5, the TGI ([5]; OVCAR-3 (Ovarian Cancer)) was 2.62E−6 and the TGI ([5]; OVCAR-4 (Ovarian Cancer)) was 1.54E−5. For the same compound, the TGI ([5]; OVCAR-5 (Ovarian Cancer)) was 7.86E−6, the TGI ([5]; OVCAR-8 (Ovarian Cancer)) was 1.49E−5 and the TGI ([5]; PC-3 (Prostate Cancer)) was 5.84E−6. For the same compound, the TGI ([5]; RXF 393 (Renal Cancer)) was 2.28E−6, the TGI ([5]; SF-268 (CNS Cancer)) was 3.32E−6 and the TGI ([5]; SK-MEL-2 (Melanoma)) was 5.64E−6. The TGI ([5]; SK-MEL-5 (Melanoma)) was 3.41E−6, the TGI ([5]; SK-MEL-28 (Melanoma)) was 3.99E−6 and the TGI ([5]; SK-OV-3 (Ovarian Cancer)) was 1.79E−5. The TGI ([5]; SN12C (Renal Cancer)) was 3.28E−6, the TGI ([5]; SNB-19 (CNS Cancer)) was 3.77E−6 and the TGI ([5]; SNB-75 (CNS Cancer)) was 3.05E−6. For the same compound, the TGI ([5]; SW-620 (Colon Cancer)) was 5.36E−6, the TGI ([5]; TK-10 (Renal Cancer)) was 6.63E−6 and the TGI ([5]; U251 (CNS Cancer)) was 2.79E−6. For the same compound, the TGI ([5]; UACC-62 (Melanoma)) was 3.96E−6, the TGI ([5]; UACC-257 (Melanoma)) was 6.68E−6 and the TGI ([5]; UO-31 (Renal Cancer)) was 3.05E−6. The GI50 [6] was 1.06 µM, the CC50 [6] was 8.38 µM and the TGI [6] was 2.98E−6. For the same compound, the GI50 [7] was 1.19 µM, the CC50 [7] was 5.74 µM and the TGI [7] was 2.62E−6.

For C[C@]12CCc3sc(NCCc4ccccc4)nc3C1=CC[C@@H]1[C@@H]2CC[C@]2(C)C(=O)CC[C@@H]12 [IIa.2, (1S,2R,13R,14S,18S)-2,18-dimethyl-7-(2-phenylethylamino)-6-thia-8-azapentacyclo [11.7.0.02,10.05,9.014,18]icosa-5(9),7,10-trien-17-one], the “SK-MEL-25 (% inhibition)” value [1] was 59%, the “SK-MEL-28 (% inhibition)” value [2] was 79% and the “Growth Percent” value [3] was 44.08%. The “Growth Percent” value [4] was 68.44%, the LC50 [5] was “>l.00E−4” and the TGI ([5]; 786-0 (Renal Cancer)) was 9.61E−6. The TGI ([5]; A498 (Renal Cancer)) was greater than 1.00E−4, the TGI ([5]; ACHN (Renal Cancer)) was 3.75E−6 and the TGI ([5]; BT-549 (Breast Cancer)) was greater than 1.00E−4. For the same compound, the TGI ([5]; CAKI-1 (Renal Cancer)) was 1.11E−5, the TGI ([5]; CCRF-CEM (Leukemia)) was 4.04E−5 and the TGI ([5]; COLO 205 (Colon Cancer)) was 8.77E−6. It also gave a TGI ([5]; DU-145 (Prostate Cancer)) greater than 1.00E−4, a TGI [5, 9] greater than 1.00E−4 and a TGI ([5]; HCC-2998 (Colon Cancer)) greater than 1.00E−4. It also gave a TGI ([5]; HCT-15 (Colon Cancer)) of 4.49E−6, a TGI ([5]; HCT-116 (Colon Cancer)) of 1.23E−5 and a TGI ([5]; HL-60(TB) (Leukemia)) of 9.10E−6. For the same compound, the TGI [5, 10] was greater than 1.00E−4, the TGI [5, 11] was 9.10E−6 and the TGI ([5]; HS 578T (Breast Cancer)) was greater than 1.00E−4. The TGI ([5]; HT29 (Colon Cancer)) was 8.11E−6, the TGI ([5]; IGROV1 (Ovarian Cancer)) was 6.18E−6 and the TGI ([5]; K-562 (Leukemia)) was greater than 1.00E−4. The TGI ([5]; KM12 (Colon Cancer)) was greater than 1.00E−4, the TGI ([5]; LOX IMVI (Melanoma)) was 3.17E−6 and the TGI ([5]; M14 (Melanoma)) was greater than 1.00E−4. The TGI ([5]; MALME-3M (Melanoma)) was 6.82E−6, the TGI ([5]; MCF7 (Breast Cancer)) was greater than 1.00E−4 and the TGI [5, 12] was 2.14E−5. The TGI ([5]; MDA-MB-435 (Melanoma)) was greater than 1.00E−4, the TGI ([5]; MDA-MB-468 (Breast Cancer)) was 1.03E−5 and the TGI ([5]; MOLT-4 (Leukemia)) was greater than 1.00E−4. For the same compound, the TGI [5, 13] was greater than 1.00E−4, the TGI [5, 14] was 6.57E−6 and the TGI [5, 15] was greater than 1.00E−4. For the same compound, the TGI [5, 16] was greater than 1.00E−4, the TGI [5, 17] was 3.64E−6 and the TGI ([5]; NCI/ADR-RES (Ovarian Cancer)) was 7.52E−6. It also gave a TGI ([5]; OVCAR-3 (Ovarian Cancer)) of 4.83E−6, a TGI ([5]; OVCAR-4 (Ovarian Cancer)) greater than 1.00E−4 and a TGI ([5]; OVCAR-5 (Ovarian Cancer)) of 6.59E−5. It also gave a TGI ([5]; OVCAR-8 (Ovarian Cancer)) greater than 1.00E−4, a TGI ([5]; PC-3 (Prostate Cancer)) greater than 1.00E−4 and a TGI ([5]; RXF 393 (Renal Cancer)) of 4.49E−6. For the same compound, the TGI ([5]; SF-268 (CNS Cancer)) was greater than 1.00E−4, the TGI ([5]; SK-MEL-2 (Melanoma)) was greater than 1.00E−4 and the TGI ([5]; SK-MEL-5 (Melanoma)) was 5.27E−5. It also gave a TGI ([5]; SK-MEL-28 (Melanoma)) of 1.89E−5, a TGI ([5]; SK-OV-3 (Ovarian Cancer)) greater than 1.00E−4 and a TGI ([5]; SN12C (Renal Cancer)) greater than 1.00E−4. The TGI ([5]; SNB-19 (CNS Cancer)) was greater than 1.00E−4, the TGI ([5]; SW-620 (Colon Cancer)) was 5.28E−6 and the TGI ([5]; T-47D (Breast Cancer)) was 2.52E−5. It also gave a TGI ([5]; TK-10 (Renal Cancer)) greater than 1.00E−4, a TGI ([5]; U251 (CNS Cancer)) greater than 1.00E−4 and a TGI ([5]; UACC-62 (Melanoma)) of 1.06E−5. The TGI ([5]; UACC-257 (Melanoma)) was 7.98E−5, the TGI ([5]; UO-31 (Renal Cancer)) was 2.51E−5 and the GI50 [6] was 18.9 µM. The CC50 [6] was greater than 100 µM, the TGI [6] was greater than 1.00E−4 and the GI50 [7] was 1.69 µM. For the same compound, the CC50 [7] was 7.75 µM and the TGI [7] was 3.62E−6.

With C[C@]12CCc3sc(Nc4ccc(F)cc4F)nc3C1=CC[C@@H]1[C@@H]2CC[C@]2(C)C(=O)CC[C@@H]12 [IIa.10, (1S,2R,13R,14S,18S)-7-(2,4-difluoroanilino)-2,18-dimethyl-6-thia-8-azapentacyclo[11.7.0.02,10.05,9.014,18]icosa-5(9),7,10-trien-17-one] the “SK-MEL-25 (% inhibition)” value [1] was 34%, the “SK-MEL-28 (% inhibition)” value [2] was 14% and the “Growth Percent” value [3] was 42.56%. For the same compound, the “Growth Percent” value [4] was 50.99%, the TGI ([5]; A498 (Renal Cancer)) was greater than 1.00E−4 and the TGI [5, 8] was greater than 1.00E−4. It also gave a TGI ([5]; BT-549 (Breast Cancer)) greater than 1.00E−4, a TGI [5, 9] greater than 1.00E−4 and a TGI ([5]; HS 578T (Breast Cancer)) greater than 1.00E−4. The TGI ([5]; K-562 (Leukemia)) was greater than 1.00E−4, the TGI ([5]; MOLT-4 (Leukemia)) was greater than 1.00E−4 and the TGI [5, 15] was greater than 1.00E−4. It also gave a TGI ([5]; OVCAR-4 (Ovarian Cancer)) greater than 1.00E−4, a TGI ([5]; OVCAR-5 (Ovarian Cancer)) greater than 1.00E−4 and a TGI ([5]; OVCAR-8 (Ovarian Cancer)) greater than 1.00E−4. For the same compound, the TGI ([5]; SK-OV-3 (Ovarian Cancer)) was greater than 1.00E−4, the TGI ([5]; SNB-19 (CNS Cancer)) was greater than 1.00E−4 and the TGI ([5]; U251 (CNS Cancer)) was greater than 1.00E−4. It also gave a CC50 [6] greater than 100 µM, a TGI [6] greater than 1.00E−4 and a GI50 [7] of 1.63 µM.
